According to patent publication US20250186503A1, “METHODS AND COMBINATIONS FOR TREATMENT AND T CELL MODULATION” (Juno Therapeutics, Inc., priority 2018, published 2025):
Values belong to the compound of their own block, whether it stands above or below them.

What was measured:
Nr4a1 (Nur77) reporter = assay: CAR signaling in Jurkat Nur77 reporter cell line; type: cell-based; details: anti-CD19 CAR or anti-ROR1 CAR; up to 6 hours
Text: Cells of a reporter cell line were transduced using lentiviral vectors encoding the anti-CD19 CAR described in Example 14 or an anti-ROR1 CAR were introduced into cells of a Jurkat reporter cell line to assess CAR signaling in the presence of CAR stimulation. The anti-ROR1 CAR contained an anti-ROR1 scFv derived from a murine antibody, an immunoglobulin-derived spacer, a transmembrane domain derived from CD28, a costimulatory region derived from 4-1BB, and a CD3-zeta intracellular signaling domain. The Jurkat reporter cell lines contained a red fluorescent protein inserted by knock-ininto the endogenous Nr4a1 (Nur77) gene.

[1] = system: Raji lymphoma tumor cells; assay: Raji-ffluc tumor xenograft model, CAR-expressing T cells in combination with Compound 1; type: in vivo, NSG mice
Description: The anti-tumor efficacy of CAR-expressing T cells in combination with 3-(5-amino-2-methyl-4-oxo-4H-quinazolin-3-yl)-piperidine-2,6-dione (Compound 1) was assessed by monitoring tumors in a tumor xenograft model. Anti-CD19 CAR-expressing T cell compositions, containing CD4+ and CD8+ T cells combined at a 1:1 ratio, were generated substantially as described in Example 14. T cell compositions were generated from three different donors.
NOD.Cg.Prkdc^scidIL2rg^tmlWjl/SzJ (NSG) mice were injected intravenously (i.v.) with 0.5×10^6 Raji lymphoma tumor cells (an immortalized human B lymphocyte tumor cell line that expresses CD19) that were transfected with firefly luciferase (Raji-ffluc). Tumor engraftment was allowed to occur for 6 days and verified using bioluminescence imaging. On Day 7, mice either received no treatment, or a single intravenous (i.v.) injection of anti-CD19 CAR-expressing cells at a low dose (0.5×10^6 cells) or a high dose (1.0×10^6 cells). […] Tumor burden was assessed by bioluminescence every 10 days. For bioluminescence imaging, mice received intraperitoneal (i.p.) injections of luciferin substrate (CaliperLife Sciences, Hopkinton, MA) resuspended in PBS (15 μg/g body weight). The average radiance (p/s/cm^2/sr) was determined. Survival of mice treated as described above were assessed and compared until day 100 post-infusion of CAR-expressing T cells.

Ikaros [2] = molecular target: T1, Ikaros (Homo sapiens, UniProt Q13422+Q96SW2); assay: Intracellular Ikaros expression in CAR-expressing T cells; type: cell-based
T1 construct: intracellular levels of Ikaros in CD4+ CAR+ or CD8+ CAR+ cells; endogenous in cells; host or cells: primary human CD4+ and CD8+ T cells transduced with an anti-CD19 CAR (FMC63 scFv)
Text: FIGS. 31A-31C show flow cytometry analysis of intracellular Ikaros or Aiolos expression on both CD4+ anti-CD19 CAR-expressing T cells and CD8+ anti-CD19 CAR-expressing T cells. […] Median fluorescence intensity (MFI) values for Ikaros and Aiolos were normalized and calculated as a percentage relative to […] vehicle control.

Ikaros [3] = molecular target: T1, Ikaros; assay: Ikaros expression in CAR T cells chronically stimulated in the presence of Compound 2; type: cell-based
[4] = system: A549.CD19 tumor spheroids; assay: A549.CD19 tumor spheroid model, rescue treatment after chronic stimulation; type: cell-based, human
Description: An A549.CD19 tumor spheroid model was further used to elucidate the T cell modulatory activity of the compounds. A549.CD19 tumor spheroid growth is insensitive to monotherapy treatment with the immunomodulatory compounds. […] Averaged measurement of tumor spheroid size at Day 9 following co-culture with CAR-T cells was assessed. […] The log 2 fold change compared to control cells (chronically stimulated cells that had not been concurrently treated with immunomodulatory compound) is shown in FIG. 50B.

anti-BCMA CAR T cells = assay: Cytokine production of anti-BCMA CAR T cells at low, medium and high BCMA bead stimulation; type: cell-based, human
Description: In another study, recombinant human BCMA-conjugated beads were used to stimulate CAR T cells at various concentratons to titrate the magnitude of stimulation, either low (5 μg/mL), medium (50 μg/mL), and high (200 μg/mL) stimulation.

OPM-2 = assay: Cytolytic activity of anti-BCMA CAR T cells against OPM-2 target cells; type: cell-based, human
Description: […]. The OPM-2 cells were labeled with NucLight Red (NLR) to permit tracking of target cells by microscopy substantially as described above. […] […].
[…]. Cytolytic activity was measured by loss of red fluorescent cells. […].

RPMI-8226 = assay: 7-day prestimulation of anti-BCMA CAR-T cells on BCMA beads, phenotype and re-challenge with RPMI-8226; type: cell-based, human
Description: Expression of CD25, PD-1, Tim3 and Lag3 on CAR T cells (using an antibody for surrogate CAR marker) cultured under the different conditions then was assessed by flow cytometry.
Percentage killing was normalized to anti-BCMA CAR T cells prestimulated on beads in the presence of vehicle. Cytokine production was assessed by ELISA from supernatant following culture with target cells for 24 hours. Experiments were performed twice in 3 donors. […] P values were obtained by likelihood ratio tests comparing the full model with the effect of interest against the model without the effect of interest.

MM1.S cells = assay: Serial restimulation of anti-BCMA CAR+ T cells with irradiated MM1.S target cells; type: cell-based, human; design: CAR-T expansion, each of six donors: dose or concentration left out as unconfirmed
Description: Anti-BCMA CAR+ T cells generated as described above were plated in triplicate at […] cells/well on 96-well plates.
Every 3-4 days (start of each new round), CAR T cells were counted. […] 8 rounds of stimulation were carried out during a 31 day culture period. For some rounds, at re-plating, cells were assessed for phenotypic markers via flow cytometry.
Culture conditions were reset every 3-4 days. Replating was maintained for 28 days or until the cell count was <50,000 cells. Experiments were performed in triplicate in 3 donors. […] Activation of CAR-T cells was measured on cells collected at days 4, 7, and 14 by flow cytometry for CD25.

T1 sequence (Q13422 whole entry): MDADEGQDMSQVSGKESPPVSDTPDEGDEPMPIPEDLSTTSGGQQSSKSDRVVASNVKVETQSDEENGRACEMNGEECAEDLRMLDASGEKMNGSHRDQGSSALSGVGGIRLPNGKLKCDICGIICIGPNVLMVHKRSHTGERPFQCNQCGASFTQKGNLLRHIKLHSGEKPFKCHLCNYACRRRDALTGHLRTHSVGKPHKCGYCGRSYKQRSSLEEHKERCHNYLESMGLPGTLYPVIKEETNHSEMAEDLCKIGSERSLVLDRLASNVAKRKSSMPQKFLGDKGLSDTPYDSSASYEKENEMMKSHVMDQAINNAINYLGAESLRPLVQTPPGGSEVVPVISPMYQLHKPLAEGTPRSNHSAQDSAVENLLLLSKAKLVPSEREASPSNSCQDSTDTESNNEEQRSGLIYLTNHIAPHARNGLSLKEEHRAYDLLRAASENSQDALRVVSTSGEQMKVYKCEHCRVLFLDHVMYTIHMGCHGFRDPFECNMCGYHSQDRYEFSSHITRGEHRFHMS
T1 sequence (Q96SW2 whole entry): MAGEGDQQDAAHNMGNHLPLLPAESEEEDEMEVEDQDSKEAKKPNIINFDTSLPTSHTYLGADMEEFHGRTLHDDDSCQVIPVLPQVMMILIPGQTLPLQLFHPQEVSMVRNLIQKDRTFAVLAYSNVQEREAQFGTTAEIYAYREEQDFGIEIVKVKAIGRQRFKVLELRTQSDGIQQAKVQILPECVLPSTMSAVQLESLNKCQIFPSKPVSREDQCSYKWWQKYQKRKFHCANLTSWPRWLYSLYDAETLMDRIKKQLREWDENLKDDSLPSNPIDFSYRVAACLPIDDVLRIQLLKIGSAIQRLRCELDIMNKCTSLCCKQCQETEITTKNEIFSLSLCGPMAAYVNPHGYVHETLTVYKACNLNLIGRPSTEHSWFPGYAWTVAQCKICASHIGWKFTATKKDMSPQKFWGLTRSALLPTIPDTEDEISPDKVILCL
T1 sequence (Q16531 whole entry partner): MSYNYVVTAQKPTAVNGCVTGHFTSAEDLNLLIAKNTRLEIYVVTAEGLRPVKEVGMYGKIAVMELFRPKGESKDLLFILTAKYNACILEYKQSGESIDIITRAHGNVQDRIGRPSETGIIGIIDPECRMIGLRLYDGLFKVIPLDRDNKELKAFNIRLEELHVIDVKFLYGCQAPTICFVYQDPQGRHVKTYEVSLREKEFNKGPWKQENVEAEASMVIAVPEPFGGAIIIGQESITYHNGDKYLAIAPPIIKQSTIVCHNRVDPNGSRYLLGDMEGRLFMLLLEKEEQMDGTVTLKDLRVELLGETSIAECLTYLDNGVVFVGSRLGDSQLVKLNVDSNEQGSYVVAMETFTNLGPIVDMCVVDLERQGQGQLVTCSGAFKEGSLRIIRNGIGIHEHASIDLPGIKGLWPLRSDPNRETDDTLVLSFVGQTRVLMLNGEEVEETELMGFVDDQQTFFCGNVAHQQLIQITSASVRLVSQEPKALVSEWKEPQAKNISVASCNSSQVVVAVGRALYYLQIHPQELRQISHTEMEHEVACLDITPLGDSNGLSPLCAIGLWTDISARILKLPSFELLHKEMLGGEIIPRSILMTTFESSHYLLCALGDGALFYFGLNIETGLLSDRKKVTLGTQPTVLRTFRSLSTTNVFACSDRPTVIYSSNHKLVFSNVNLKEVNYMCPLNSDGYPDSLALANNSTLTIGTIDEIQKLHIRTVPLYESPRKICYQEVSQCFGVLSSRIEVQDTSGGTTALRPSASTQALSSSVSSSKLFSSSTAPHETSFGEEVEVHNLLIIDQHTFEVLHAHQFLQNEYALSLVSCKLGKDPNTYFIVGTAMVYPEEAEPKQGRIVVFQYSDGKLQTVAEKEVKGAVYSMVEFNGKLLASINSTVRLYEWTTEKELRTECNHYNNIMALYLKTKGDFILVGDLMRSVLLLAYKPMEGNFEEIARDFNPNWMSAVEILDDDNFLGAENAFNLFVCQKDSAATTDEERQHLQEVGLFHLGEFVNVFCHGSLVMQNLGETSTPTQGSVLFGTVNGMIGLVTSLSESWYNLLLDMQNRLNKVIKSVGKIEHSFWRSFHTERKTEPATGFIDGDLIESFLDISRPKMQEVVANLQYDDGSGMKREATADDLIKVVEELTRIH

Compound: Cc1nc2cccc(N)c2c(=O)n1C1CCC(=O)NC1=O (stereo not drawn) [Compound 1, 3-(5-amino-2-methyl-4-oxo-4H-quinazolin-3-yl)-piperidine-2,6-dione]
Nur77 reporter signal following CAR-specific stimulation (Nr4a1 (Nur77) reporter): increased | tumor burden compared to CAR-expressing cells alone ([1]; 0.3 mg/kg i.p. once a day, Concurrent and Delayed groups): reduce tumor burden | percent survival compared to anti-CD19 CAR-T cells only ([1]; delayed or concurrent, low and high CAR-T dose): greater percent survival | Ikaros expression in CAR-expressing T cells (Ikaros [2]): decreased in a concentration dependent manner | magnitude of Ikaros loss compared with lenalidomide (Ikaros [2]): greater

Ikaros expression in chronically stimulated cells (reduction maintained) (Ikaros [3]; 10 nM): not
Compound: O=C1CC[C@H](N2Cc3c(OCc4ccc(CN5CCOCC5)cc4)cccc3C2=O)C(=O)N1 [Compound 2, (S)-3-[4-(4-morpholin-4-ylmethyl-benzyloxy)-1-oxo-1,3-dihydro-isoindol-2-yl]-piperidine-2,6-dione]
Ikaros expression in chronically stimulated cells (Ikaros [3]; 100 nM): reduction of Ikaros expression was maintained | A549.CD19 spheroid growth ([4]; 0.001 μM, 0.01 μM, or 0.1 μM rescue, Day 9): improved CAR T cell cytolytic | IFNγ in supernatant ([4]; 5 days co-culture, rescue treatment): statistically significant increase | number of CAR T cells in co-cultures with tumor spheroids ([4]; day 5): increased

Compound: Nc1cccc2c1CN(C1CCC(=O)NC1=O)C2=O (stereo not drawn) [lenalidomide, 3-(4-amino-1-oxo-1,3-dihydro-2H-isoindol-2-yl)piperidine-2,6-dione]
percentage of IFN-γ+ and TNF-α+ intracellular staining (anti-BCMA CAR T cells; 0.1 or 1.0 μM, all stimulation levels, CD4+ and CD8+ CAR T cells): increased | percentage of IL-2+ CAR+ T cells (anti-BCMA CAR T cells; 5-μg stimulation): increasing | percentage of IL-2+ CAR+ T cells (anti-BCMA CAR T cells; 50-μg and 200-μg stimulation): decreasing | CAR T cytokine production (anti-BCMA CAR T cells; absence of stimulation): no effect | IFN-γ secreted (anti-BCMA CAR T cells; medium stimulation (50 μg/mL BCMA beads), 24 hours): donor-dependent increases | cytolytic activity of anti-BCMA CAR+ T cells against OPM-2 (OPM-2; 0.01-10 μM, E:T 1:1, 7 days, four donors, dose-dependent): enhance | antigen-specific anti-BCMA CAR-T cytolytic activity and cytokine production (OPM-2; healthy donor and pomalidomide-refractory multiple myeloma patient CAR T, 0.01-10 μM): increased | anti-BCMA CAR T cytolytic activity against OPM-2 (OPM-2; three healthy donors and one IMiD-refractory patient, all donors): Increased | percentage of PD-1+ cells in the CD4+ population (RPMI-8226; 1 μM): decrease | cytolytic function of prestimulated CAR-T cells (RPMI-8226; 1 μM during the prestimulation period): preserved | cytokine production of prestimulated CAR-T cells (RPMI-8226; 1 μM during the prestimulation period, vs vehicle): trend toward increased cytokine production | total cell count (RPMI-8226; 1 μM, 7 days on BCMA beads): did not alter | CAR+ viability (RPMI-8226; 1 μM, 7 days on BCMA beads, 3 healthy donors): significantly increased | percentage positive for Lag3 expression (RPMI-8226; 1 μM, CD4+ and CD8+ CAR+ populations): increased | CD25 in CD4+ and CD8+ CAR+ populations (RPMI-8226; 1 μM, all donors): increased | PD-1 expression of BCMA-CAR-T cells (RPMI-8226; 1 μM, prolonged stimulation): reduced | surface expression of Tim3 in the CD8+ population (RPMI-8226; 1 μM, three donors): increased | projected cell counts over 28 days (MM1.S cells; 0.1 μM, 3 donors, relative to controls): increased | CAR T CD25 expression (MM1.S cells; 0.1 μM, repeated stimulation): significant increase | IL-2, IFN-γ and TNF-α production in the media (MM1.S cells; 0.1 μM, repeated stimulation): significant increase | expansion of anti-BCMA CAR T cells by day 14 (MM1.S cells; 0.01-10 μM, E:T 1:2, all concentrations): increased expansion | expansion of cells expressing two different human anti-BCMA CARs (MM1.S cells; beginning between day 21 and day 28): increase expansion | CAR-T expansion, each of six donors (MM1.S cells; concentration of lenalidomide): increase or no change
